Paper PMC7226534, “[^18F]FET-βAG-TOCA: The Design, Evaluation and Clinical Translation of a Fluorinated Octreotide” (Cancers, 2020)

How the values were obtained:
rat (HsdHan:WIST strain) = assay: GLP single dose intravenous bolus extended acute toxicology study in the rat; assay type: in vivo; details: dose levels 0, 0.25 and 1 mg/kg
Method: Two key studies were conducted to assure regulators of the safety of [^18F]FET-βAG-TOCA prior to first-in-human testing. A Good Laboratory Practice single dose intravenous bolus extended acute toxicology study in the rat (HsdHan^TM:WIST strain) was conducted with both [^19F]FET-βAG-TOCA and the propanyl-βAG-TOCA precursor. Animals were monitored throughout; day 2 (interim) and day 14 (termination) analysis were conducted. Dose levels of 0, 0.25 and 1 mg/kg of either test articles were tolerated in-life with no mortality. There were no effects on food consumption or body weight. Clinical pathology changes were noted but were not consistently seen in both sexes and were not associated with any pathological changes. A No Observed Adverse Effect Level (NOAEL) for both [^19F]FET-βAG-TOCA and propanyl-βAG-TOCA was considered to be 1.0 mg/kg. This study followed ‘approach 1’ given in the ICH M3 (R2) guideline to assess whether a single 50 μg (up to 100 μg) dose of the test article can be given to humans. The study design permitted a safety margin of 1000× the equivalent human dose to be established.

Wistar rats = details: in vivo, iv
Method: While adhering to ALARP principles (As Low As Reasonably Practical), a rat dosimetry study was also conducted to enable initial prediction of human Effective Dose. Wistar rats were dosed with a single intravenous injection of [^18F]FET-βAG-TOCA and monitored up to 7 h. Effective Dose for both sexes were estimated at 0.03 mSv/MBq.

| Substance | Effects on food consumption or body weight (rat (HsdHan:WIST strain)) | Tolerability / mortality (rat (HsdHan:WIST strain)) | Effective Dose predicted for humans from rat dosimetry (Wistar rats) [mSv/MBq] |
| --- | --- | --- | --- |
| propanyl-βAG-TOCA | no effects | no mortality |  |
| [^18F]fluoroethyltriazole-βAG-TOCA [Compound 7] |  |  | 0.03 |
| [^19F]FET-βAG-TOCA | no effects | no mortality |  |
